Data: US12617773B2, “Azetidin-3-ylmethanol derivatives as CCR6 receptor modulators” (Idorsia Pharmaceuticals Ltd, priority 2020, dated 2026)

Target: T1, human CCR6 (Homo sapiens, UniProt P51684)
T1 construct: expressed in transfected cells; host or cells: HEK-293
T1 sequence (P51684 1-374): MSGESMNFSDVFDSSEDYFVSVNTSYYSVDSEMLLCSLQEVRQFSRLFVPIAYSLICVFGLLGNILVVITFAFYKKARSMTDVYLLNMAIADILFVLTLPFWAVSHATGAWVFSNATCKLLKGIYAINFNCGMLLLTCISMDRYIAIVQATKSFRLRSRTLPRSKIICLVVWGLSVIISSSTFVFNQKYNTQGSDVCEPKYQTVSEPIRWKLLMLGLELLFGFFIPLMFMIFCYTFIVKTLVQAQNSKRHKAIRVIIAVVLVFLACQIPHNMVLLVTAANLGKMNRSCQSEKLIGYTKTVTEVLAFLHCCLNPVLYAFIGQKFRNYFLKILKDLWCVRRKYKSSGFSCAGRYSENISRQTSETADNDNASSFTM
Assay: FLIPR assay (inhibition of CCL20-induced calcium signal)
Format: cell-based
Settings: HEK-293 cells expressing human CCR6; mean values where determined several times; read-out: FLIPR IC50
Procedure, shortened: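 IC50 values come from baseline-corrected peak calcium fluorescence after agonist. The agonist was CCL20 at 10 nM final, added to engineered human CCR6 HEK-293 cells following a 30-min, room-temperature, dark preincubation with serially diluted compound. Readings were taken in a fluorometric imaging plate reader.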

Structure (SMILES) | IC50 [nM]
CC(C)c1ccc([C@](O)(c2cncc(C3CCC(C)(O)CC3)c2)C2(C)CN(C)C2)cc1 (stereo partly drawn) [Example 327, 4-{5-[(R)-(1,3-Dimethyl-azetidin-3-yl)-hydroxy-(4-isopropyl-phenyl)-methyl]-pyridin-3-yl}-1-methyl-cyclohexanol] | 168
CC(C)c1ccc([C@](O)(c2cncc(C3CC3C(C)(C)O)c2)C2(C)CN(C)C2)cc1 (stereo partly drawn) [Example 328, 2-(2-{5-[(R)-(1,3-Dimethyl-azetidin-3-yl)-hydroxy-(4-isopropyl-phenyl)-methyl]-pyridin-3-yl}-cyclopropyl)-propan-2-ol] | 187
CC(C)c1ccc([C@](O)(c2ccnc(-c3noc(C4CCOCC4)n3)c2)C2(C)CN(C)C2)cc1 [Example 329, (S)-(1,3-Dimethyl-azetidin-3-yl)-(4-isopropyl-phenyl)-{2-[5-(tetrahydro-pyran-4-yl)-[1,2,4]oxadiazol-3-yl]-pyridin-4-yl}-methanol] | 485
CC(C)c1ccc(C(O)(c2cnc(N3CCCC3)nc2)C2(C)CN(C)C2)cc1 (stereo not shown) [Example 330, (1,3-Dimethyl-azetidin-3-yl)-(4-isopropyl-phenyl)-(2-pyrrolidin-1-yl-pyrimidin-5-yl)-methanol] | 143
CC(C)c1ccc(C(O)(c2cncc(N3CCCC3)n2)C2(C)CN(C)C2)cc1 (stereo not shown) [Example 331, (1,3-Dimethyl-azetidin-3-yl)-(4-isopropyl-phenyl)-(6-pyrrolidin-1-yl-pyrazin-2-yl)-methanol] | 50.1
[2H]C([2H])([2H])C(=O)NC1(c2nc(-c3cncc([C@@](O)(c4ccc(C(C)C)cc4)C4(C)CN(C)C4)c3)no2)CC1 [Example 332] | 290
[2H]C([2H])([2H])C(=O)N(C)C1(c2nc(-c3cncc([C@@](O)(c4ccc(C(C)C)cc4)C4(C)CN(C)C4)c3)no2)CC1 [Example 333] | 113
[2H]C([2H])([2H])C(=O)N(C)Cc1nc(-c2cncc([C@@](O)(c3ccc(C(C)C)cc3)C3(C)CN(C)C3)c2)no1 [Example 334] | 216
CC(C)c1ccc([C@](O)(c2cncc(-c3noc(CNC(=O)CO)n3)c2)C2(C)CN(C)C2)cc1 [Example 335] | 337
[2H]C([2H])([2H])C(=O)NCc1nc(-c2cncc([C@@](O)(c3ccc(C(C)C)cc3)C3(C)CN(C)C3)c2)no1 [Example 336] | 207
CC(C)c1ccc([C@](O)(c2cncc(-c3noc(CC(C)(C)O)n3)c2)C2(C)CN(C(C)C)C2)cc1 [Example 337, 1-(3-{5-[(R)-Hydroxy-(1-isopropyl-3-methyl-azetidin-3-yl)-(4-isopropyl-phenyl)-methyl]-pyridin-3-yl}-[1,2,4]oxadiazol-5-yl)-2-methyl-propan-2-ol] | 95.1
CCN1CC(C)([C@](O)(c2ccc(C(C)C)cc2)c2cncc(-c3noc(CC(C)(C)O)n3)c2)C1 [Example 338, 1-(3-{5-[(R)-(1-Ethyl-3-methyl-azetidin-3-yl)-hydroxy-(4-isopropyl-phenyl)-methyl]-pyridin-3-yl}-[1,2,4]oxadiazol-5-yl)-2-methyl-propan-2-ol] | 93.8
CC(C)c1ccc([C@](O)(c2cncc(-c3noc(C(C)(C)O)n3)c2)C2(C)CN(C(C)C)C2)cc1 [Example 339, 2-(3-{5-[(R)-Hydroxy-(1-isopropyl-3-methyl-azetidin-3-yl)-(4-isopropyl-phenyl)-methyl]-pyridin-3-yl}-[1,2,4]oxadiazol-5-yl)-propan-2-ol] | 100
CCN1CC(C)([C@](O)(c2ccc(C(C)C)cc2)c2cncc(-c3noc(C(C)(C)O)n3)c2)C1 [Example 340, 2-(3-{5-[(R)-(1-Ethyl-3-methyl-azetidin-3-yl)-hydroxy-(4-isopropyl-phenyl)-methyl]-pyridin-3-yl}-[1,2,4]oxadiazol-5-yl)-propan-2-ol] | 79.4
CC(C)c1ccc([C@](O)(c2cncc(-c3nc(C4CCN(C(=O)OCc5ccccc5)CC4)no3)c2)C2(C)CN(C)C2)cc1 [Example 341] | 66.6
CC(=O)N1CCC(c2noc(-c3cncc([C@@](O)(c4ccc(C(C)C)cc4)C4(C)CN(C)C4)c3)n2)CC1 [Example 342] | 154
[2H]C([2H])([2H])C(=O)N1CC(c2nc(-c3cncc([C@@](O)(c4ccc(C(C)C)cc4)C4(C)CN(C)C4)c3)no2)C1 [Example 343] | 532
[2H]C([2H])([2H])C(=O)N1CC(C)(c2nc(-c3cncc([C@@](O)(c4ccc(C(C)C)cc4)C4(C)CN(C)C4)c3)no2)C1 [Example 344] | 441
[2H]C([2H])([2H])C(=O)N1CC(F)(c2nc(-c3cncc([C@@](O)(c4ccc(C(C)C)cc4)C4(C)CN(C)C4)c3)no2)C1 [Example 345] | 252

Structure (SMILES) | IC50 [nM]
CC(C)c1ccc([C@](O)(c2cncc(-c3noc(C(C)(C)N4CCOCC4)n3)c2)C2(C)CN(C)C2)cc1 [Example 346] | 62.5
CC(C)c1ccc([C@](O)(c2cncc(-c3noc(C4CCN(C)C(=O)C4)n3)c2)C2(C)CN(C)C2)cc1 (stereo partly shown) [Example 347] | 120
CC(=O)N1CC[C@H](c2nc(-c3cncc([C@@](O)(c4ccc(C(C)C)cc4)C4(C)CN(C)C4)c3)no2)C1 [Example 348] | 135
CC(=O)N1CC[C@@H](c2nc(-c3cncc([C@@](O)(c4ccc(C(C)C)cc4)C4(C)CN(C)C4)c3)no2)C1 [Example 349] | 113
CC(=O)NC(C)(C)c1nc(-c2cncc([C@@](O)(c3ccc(C(C)C)cc3)C3(C)CN(C)C3)c2)no1 [Example 350] | 242
CC(C)c1ccc([C@](O)(c2cncc(-c3noc(C4CCN(Cc5ccccc5)C4=O)n3)c2)C2(C)CN(C)C2)cc1 (stereo partly shown) [Example 351] | 27.6
CC(C)c1ccc([C@](O)(c2cncc(-c3noc(C4(C)CCN(C)C4=O)n3)c2)C2(C)CN(C)C2)cc1 (stereo partly shown) [Example 352] | 110
CC(C)CN1CC(c2nc(-c3cncc([C@@](O)(c4ccc(C(C)C)cc4)C4(C)CN(C)C4)c3)no2)CC1=O (stereo partly shown) [Example 353] | 40.3
CC(C)c1ccc([C@](O)(c2cncc(-c3noc(C4CC(=O)N(Cc5ccco5)C4)n3)c2)C2(C)CN(C)C2)cc1 (stereo partly shown) [Example 354] | 29
CC(C)c1ccc([C@](O)(c2cncc(-c3noc(C4CC(=O)N(c5ccccc5)C4)n3)c2)C2(C)CN(C)C2)cc1 (stereo partly shown) [Example 355] | 24.8
CC(C)c1ccc([C@](O)(c2cncc(-c3noc(C4CC(=O)N(Cc5ccccc5)C4)n3)c2)C2(C)CN(C)C2)cc1 (stereo partly shown) [Example 356] | 12.7
CC(C)c1ccc([C@](O)(c2cncc(-c3noc(C4CCC(=O)N4c4ccccc4)n3)c2)C2(C)CN(C)C2)cc1 (stereo partly shown) [Example 357] | 26.1
CC(C)c1ccc([C@](O)(c2cncc(-c3noc(C4CNC(=O)C4)n3)c2)C2(C)CN(C)C2)cc1 (stereo partly shown) [Example 358] | 131
CC(C)c1ccc([C@](O)(c2cncc(-c3noc([C@@H]4CCC(=O)N4)n3)c2)C2(C)CN(C)C2)cc1 [Example 359] | 234
CC(C)c1ccc([C@](O)(c2cncc(-c3noc([C@H]4CCC(=O)N4)n3)c2)C2(C)CN(C)C2)cc1 [Example 360] | 292
CC(C)c1ccc([C@](O)(c2cncc(-c3noc([C@@H]4CCCC(=O)N4)n3)c2)C2(C)CN(C)C2)cc1 [Example 361] | 164
CC(C)c1ccc([C@](O)(c2cncc(-c3noc(C4CCNC(=O)C4)n3)c2)C2(C)CN(C)C2)cc1 (stereo partly shown) [Example 362] | 90
CC(C)c1ccc([C@](O)(c2cncc(-c3noc([C@@H]4CC(=O)N4)n3)c2)C2(C)CN(C)C2)cc1 [Example 363] | 178
